Test results from patent US20150231236A1, “METHODS FOR TREATING PATIENTS WITH HYPERCHOLESTEROLEMIA THAT IS NOT ADEQUATELY CONTROLLED BY MODERATE-DOSE STATIN THERAPY” (Regeneron Pharmaceuticals, Inc., priority 2014, published 2015).

Assays:
[1] = tested on: patients with hypercholesterolemia at high CV risk not adequately controlled with rosuvastatin (10 mg or 20 mg); assay: Example 3: randomized, double-blind trial, lipid efficacy of mAb316P add-on to rosuvastatin vs EZE add-on or rosuvastatin dose doubling; type: in vivo, human; conditions: for LS Mean Difference, percent change from baseline of Apo B to week 24 / LS Mean Difference, percent change from baseline of calculated LDL-C to week 12 / LS Mean Difference, percent change from baseline of calculated LDL-C to week 24 / LS Mean Difference, percent change from baseline of non-HDL-C to week 24 / Odds Ratio, proportion of patients reaching calculated LDL-C < 70 mg/dL (1.81 mmol/L) at Week 24 / Odds Ratio, proportion of very high CV risk patients reaching calculated LDL-C < 70 mg/dL or high CV risk patients reaching calculated LDL-C < 100 mg/dL at Week 24: mITT Population
Description: The present study was a randomized, double-blind, active-comparator, parallel-group study in patients at high CV risk with non-FH or heFH who are not adequately controlled with rosuvastatin (10 mg or 20 mg) with or without other lipid-modifying therapy (LMT) (excluding EZE). The study design is illustrated in FIG. 2. Patients who entered the study were taking either rosuvastatin 10 mg or rosuvastatin 20 mg. The former patients were randomized to 1 of 3 treatment arms (arms 1 to 3); the latter patients were randomized to 1 of 3 treatment arms (arms 4 to 6). The treatment arms are as follows:
(B) a double-blind treatment period of 24 weeks. […] The patient/caregiver administered subsequent injections outside of the clinic according to the dosing schedule. […] The last dose of daily oral study drugs was administered at week 24.
The first injection of study drug was administered at the clinical site, as soon as possible after the patient was randomized into the study. The patient was monitored at the clinical site for at least 30 minutes following the first injection. The patient/caregiver administered subsequent injections outside of the clinic, according to the dosing schedule.
The primary efficacy endpoint was the percent change in calculated LDL-C from baseline to week 24, which is defined as: 100× (calculated LDL-C value at week 24−calculated LDL-C value at baseline)/calculated LDL-C value at baseline. The baseline calculated LDL-C value was the last LDL-C level obtained before the first double-blind study drug injection. The calculated LDL-C at week 24 was the LDL-C level obtained within the week 24 analysis window and during the main efficacy period. The main efficacy period is defined as the time from the first double-blind study drug injection up to 21 days after the last double-blind study drug injection or up to the upper limit of the week 24 analysis window, whichever comes first.
Total-C, HDL-C, TG, ApoB, ApoA-1, and Lp(a) were directly measured by a central laboratory. LDL-C was calculated using the Friedewald formula. […] Non-HDL-C was calculated by subtracting HDL-C from the total-C. Ratio ApoB/ApoA-1 was calculated.
For clarification, the ITT analysis is defined for patients in the ITT population and includes all endpoint assessments in an analysis window, regardless of study treatment dosing status (i.e. includes post-treatment assessments). The on-treatment analysis is defined for patients in the mITT population and includes all endpoint assessments from the first double-blind study drug (capsule or injection, whichever comes first) up to 21 days after the last double-blind study drug injection or 3 days after the last capsule intake, whichever comes first (i.e. includes assessments in the efficacy treatment period).

[2] = tested on: patients with hypercholesterolemia at high CV risk not adequately controlled with atorvastatin (20 mg or 40 mg); assay: Example 2: safety, treatment-emergent adverse events in pooled treatment groups
Description: For the pooled data, three treatment groups are formed by combining treatment arms regardless of the atorvastatin doses as follows:
(2) EZE treatment group: pooling EZE+atorva 20 mg arm and EZE+atorva 40 mg arm;

[3] = tested on: patients with hypercholesterolemia at high CV risk not adequately controlled with atorvastatin (20 mg or 40 mg); assay: Example 2: anti-mAb316P anti-drug antibody (ADA) status; type: in vivo, human
[4] = Comparison 1: mAb316P + rosuvastatin 10 mg arm vs. rosuvastatin 20 mg arm
[5] = Comparison 2: mAb316P + rosuvastatin 10 mg arm vs. EZE + rosuvastatin 10 mg arm
[6] = Comparison 3: mAb316P + rosuvastatin 20 mg arm vs. rosuvastatin 40 mg arm
[7] = Comparison 4: mAb316P + rosuvastatin 20 mg arm vs. EZE + rosuvastatin 20 mg arm
[8] = Safety Population, pooled treatment groups
[9] = of the five ADA positive patients

## mAb316P: human anti-PCSK9 antibody; heavy chain SEQ ID NO:5, light chain SEQ ID NO:9
[1]; baseline rosuvastatin 10 mg regimen
  proportion of patients who reached LDL-C level of <70 mg/dL (1.81 mmol/L) at Week 24: 77.8%
[1]; baseline rosuvastatin 20 mg regimen
  proportion of patients who reached LDL-C level of <70 mg/dL (1.81 mmol/L) at Week 24: 60.1%
[1]; [4]
  LS Mean Difference, percent change from baseline of Apo B to week 24: −30.7%
  LS Mean Difference, percent change from baseline of calculated LDL-C to week 12: −35.3%
  LS Mean Difference, percent change from baseline of calculated LDL-C to week 24: −35.2%
  LS Mean Difference, percent change from baseline of non-HDL-C to week 24: −32.8%
  Odds Ratio, proportion of patients reaching calculated LDL-C < 70 mg/dL (1.81 mmol/L) at Week 24: 20.3
  Odds Ratio, proportion of very high CV risk patients reaching calculated LDL-C < 70 mg/dL or high CV risk patients reaching calculated LDL-C < 100 mg/dL at Week 24: 12.4
[1]; [5]
  LS Mean Difference, percent change from baseline of Apo B to week 24: −28.3%
  LS Mean Difference, percent change from baseline of calculated LDL-C to week 12: −32.3%
  LS Mean Difference, percent change from baseline of calculated LDL-C to week 24: −33.2%
  LS Mean Difference, percent change from baseline of non-HDL-C to week 24: −28.2%
  Odds Ratio, proportion of patients reaching calculated LDL-C < 70 mg/dL (1.81 mmol/L) at Week 24: 12.7
  Odds Ratio, proportion of very high CV risk patients reaching calculated LDL-C < 70 mg/dL or high CV risk patients reaching calculated LDL-C < 100 mg/dL at Week 24: 8.9
[1]; [6]
  LS Mean Difference, percent change from baseline of Apo B to week 24: −17.7%
  LS Mean Difference, percent change from baseline of calculated LDL-C to week 12: −12.3%
  LS Mean Difference, percent change from baseline of calculated LDL-C to week 24: −24.5%
  LS Mean Difference, percent change from baseline of non-HDL-C to week 24: −20.7%
  Odds Ratio, proportion of patients reaching calculated LDL-C < 70 mg/dL (1.81 mmol/L) at Week 24: 9.0
  Odds Ratio, proportion of very high CV risk patients reaching calculated LDL-C < 70 mg/dL or high CV risk patients reaching calculated LDL-C < 100 mg/dL at Week 24: 5.9
[1]; [7]
  LS Mean Difference, percent change from baseline of Apo B to week 24: −17.8%
  LS Mean Difference, percent change from baseline of calculated LDL-C to week 12: −13.3%
  LS Mean Difference, percent change from baseline of calculated LDL-C to week 24: −24.9%
  LS Mean Difference, percent change from baseline of non-HDL-C to week 24: −17.4%
  Odds Ratio, proportion of patients reaching calculated LDL-C < 70 mg/dL (1.81 mmol/L) at Week 24: 3.4
  Odds Ratio, proportion of very high CV risk patients reaching calculated LDL-C < 70 mg/dL or high CV risk patients reaching calculated LDL-C < 100 mg/dL at Week 24: 2.7
[2]; [8]
  General Allergic TEAEs (SMQ Hypersensitivity): 2 (1.9%) patients (%)
  SOC Injury, poisoning and procedural complications: 15 (14.4%) patients (%)
  SOC Musculoskeletal and connective tissue disorders: 24 (23.1%) patients (%)
  SOC Neoplasms benign, malignant and unspecified (incl cysts and polyps): 3 (2.9%) patients (%)
  SOC Nervous system disorders: 10 (9.6%) patients (%)
  TEAEs: 68 (65.4%) patients (%)
  Treatment-emergent SAEs: 4 (3.8%) patients (%)
  Treatment-emergent injection site reactions (ISRs): 3 (2.9%) patients (%)
  Treatment-emergent neurologic disorders: 3 (2.9%) patients (%)
  discontinued study treatment early due to a treatment emergent adverse event (TEAE): 7 (6.7%) patients (%)
[2]; Safety Population, pooled treatment groups, ischemia driven coronary revascularization procedure
  Treatment-emergent cardiovascular events adjudicated positively: 2 (1.9%) patients (%)
[2]; pooled mAb316P group
  TEAE Back pain: 7 patients
  TEAE Headache: 4 patients
  TEAE Hypertension: 5 patients
  TEAE Muscle spasms: 4 patients
  TEAE influenza: 3 patients
  TEAE nasopharyngitis: 5 patients
  TEAE upper respiratory tract infection: 5 patients
  TEAE urinary tract infection: 3 patients
[3]; 5 of 99 patients in the pooled mAb316P add-on group
  Treatment-emergent ADA positive responses: 5.1%
[3]; in vivo
  overall immunogenicity: immunogenicity was low
[3]; of patients with positive ADA status
  positive mAb316P-neutralizing antibody status: One and one
[3]; [9]
  treatment-emergent ADA: persistent responses: three
  treatment-emergent ADA: transient response: one
